Assay results reported in patent publication US20260102484A1, “ADJUVANTS FOR ENHANCING THE IMMUNE RESPONSE” (priority 2022, published 2026).

Legend:
[1] = test system: myeloid (GR1+CD11b+) cells and lymphoid (CD8+) cells; assay: FACS analysis of myeloid and lymphoid cells at higher DPCA doses; type: in vivo, mice
Experimental: To explore what is happening at higher DPCA doses and why they may be inhibitory, we tested the effects of different concentrations of DPCA on myeloid (GR1+CD11b+) cells and lymphoid (CD8+) cells. […] Also, the number of GR1+CD11b+myeloid cells is much higher. Within this population of myeloid cells are cells that can suppress T cells.
Additionally, cells were immunized with 50 ug of DPCA and compared to an untreated control. The number of cell in each was determined by FACS analysis. […] (See upper panels showing scatter plots with an increased number of cells in treated cells). An analysis of myeloid cell markers GR1 and CD11b was determined in the control and DPCA treated cells. […] (See lower panels)

splenic T cells = assay: Recall response of splenic T cells to peptide #5-palmitic acid, CTFR proliferation dye and FACS; type: in vivo, Mice; settings: immunized subcutaneously with peptide #5-palmitic acid CFA + 10 ug; 14 days later; FIG. 7
Experimental: Mice were now immunized with peptide 5 and T cells analyzed for proliferation and by FACS analysis. (FIG. 7) Mice were immunized subcutaneously with peptide #5-palmitic acid CFA mixture with and without 10 ug of 1,4-DPCA. 14 days later, splenic T cells were isolated and co-cultured with irradiated feeders in a ratio of 400k:100k to assess recall responses to peptide #5-palmitic acid. T cells from unimmunized mice were used as control. Only T cells were stained with CTFR proliferation dye in order to ensure detection of specific T cell responses.
In upper FIG. 7 is the FACS flow cytometry plot, where the labelled cells are T cells. […] Below this, is the analyzed proliferation data, where the yellow line is immunized+10 ug of DPCA was given to mice, the grey line is immunized only, the orange line is control, unimmunized but stimulated in culture, and the blue line is control, unstimulated in culture.

[2] = test system: antigen-specific (RBD peptide #9) Proliferative T cell response; design: species or system Mice; settings: mouse, in vivo
[3] = test system: cytokine response to RBD Peptide #9 (IL6, IFNg, TNF, IL17, IL 10); design: species or system Mice; settings: mouse, in vivo
[4] = test system: Naïve, central memory, and effector T cells (CD4 and CD8); assay: Numbers of naive, central memory and effector memory T cells from lymph nodes and spleen; type: in vivo; settings: peptide 9 and 10 ug or 25 ug of DPCA, FIG. 6
Experimental: Next, three populations of T cells (Naïve, central memory, and effector T cells) from lymph nodes and spleens were treated with peptide 9 and 10 ug of DPCA or 25 ug of DPCA. An untreated control group and a control group treated with PBS were also tested.

O=C(O)c1c[nH]c2c(ccc3cccnc32)c1=O [1,4-DPCA, 1,4-dihydrophenonthrolin-4-one-3-carboxylic acid]
number of large cells (FACS scatter plots) ([1]; 50 ug of DPCA vs untreated control, FIG. 5): increase number of large cells | myeloid cell markers GR1 and CD11b ([1]; DPCA treated vs untreated control, FIG. 5 lower panels): large population of myeloid cells | relationship between lymphoid and myeloid cells ([1]; higher DPCA dosage, FIG. 4): Inverse relationship | number of CD8+T cells ([1]; higher DPCA doses, FIG. 4): reduced | number of GR1+CD11b+myeloid cells ([1]; higher DPCA doses, FIG. 4): much higher | T cell proliferation (FACS flow cytometry plot) (splenic T cells): increased proliferation | antigen-specific (RBD peptide #9) Proliferative T cell response [2]: enhances | IFNg response [3]: most dramatically affected | cytokine response (IL6, IFNg, TNF, IL17, and IL 10) [3]: dose-dependent | numbers of memory cells (CD4 and CD8) [4]: increased numbers | numbers of naïve cells (CD4 and CD8) [4]: lower numbers
